The text below walks through data of patent publication US8119630B2 (Arrow Therapeutics Limited, priority 2002, dated 2012).

SMILES strings stand for the structures.

In one assay the test system is RSV. Nature of the assay: XTT assay, RSV-infected Vero cells. It is filed as cell-based, Respiratory Syncytial Virus (RSV). The following applies: Table 1; Vero cells infected with RSV, m.o.i.≈0.2, 6 days at 33° C.; read-out: XTT IC50. The procedure: Examples 1 to 74 and 83 to 124 were tested using the following protocol.
The inner 60 wells of 96 well tissue culture plates were seeded with Vero cells at 3×10^4 cells/well (1×10^4 cells/well for toxicity studies) in 100 or 150 μl of medium and incubated at 37° C. overnight or until nearing confluency. For primary screen, 25 μl compounds were added directly to 100 μl medium in single wells to duplicate plates. A third plate was prepared for simultaneous toxicity investigation.
For follow-up investigation, 70 μl of compound in duplicate wells were added directly to culture medium at 3.2× final concentration and ½ log serially diluted down columns of plate. A duplicate plate was prepared for simultaneous toxicity investigation.
Cells were infected with 25 μl RSV to give m.o.i.≈0.2. Some 100 μl of sterile distilled water were added to the outer wells of the plate and incubated at 33° C. for 6 days. Some 0.25 μl/ml PMS were added to stock XTT solution, final conc. […]. Then 25 μl warmed XTT/PMS solution were added to each well and incubated for 5 hours at 37° C. Plates were shaken (DynaTech Vari-Shaker) vigorously for 10 mins and allowed to cool for 15 mins before sealing. Absorbance at 450 nm was measured and data analysed using Microsoft Excel software.
Maximum OD450nm reading (uninfected, untreated control cells) corresponded to 100% inhibition. Minimum OD450nm readings (infected control cells) corresponded to 0% inhibition. Log 10 concentration was plotted against OD450nm and IC50 (Table 1) values were calculated from either reading 50% value from graph or using regression analysis.
In general, IC50 refers to the point on the concentration scale where inhibition reaches its midpoint. Turning to `O=C(NC1N=C(c2ccccc2)c2ccccc2NC1=O)C1CCCCC1` (centres unmarked) [Example 8], the half-maximal inhibitory concentration (IC50) came out at 2 µM.
Consider `COc1ccc(C(=O)NC2N=C(c3ccccc3)c3ccccc3NC2=O)cc1` (centres unmarked) [Example 10, 4-Methoxy N-(2-oxo-5-phenyl-2,3-dihydro-1H-benzo[e][1,4]diazepin-3-yl)-benzamide], for which the IC50 was found to be 1.5 µM.
For the compound `COc1ccccc1C(=O)NC1N=C(c2ccccc2)c2ccccc2NC1=O` (centres unmarked) [Example 11, 2-Methoxy N-(2-oxo-5-phenyl-2,3-dihydro-1H-benzo[e][1,4]diazepin-3-yl)-benzamide], the IC50 was found to be 0.5 µM.
Consider `O=C(NC1N=C(c2ccccc2)c2ccccc2NC1=O)c1cccs1` (centres unmarked) [Example 14, Thiophene-2-carboxylic acid (2-oxo-5-phenyl-2,3-dihydro-1H-benzo[e][1,4]diazepin-3-yl)-3-amide], for which the concentration for half-maximal inhibition (IC50) was found to be 1.5 µM.
Take `O=C1Nc2ccccc2C(c2ccccc2)=NC1NC(=O)N1CCCCC1` (centres unmarked) [Example 16]: the IC50 was 2 µM.

The same assay, now with this note: human respiratory syncytial virus, Vero, 144 h, read-out: XTT IC50 (uM), Table 1; Vero cells infected with RSV, m.o.i.≈0.2, 6 days at 33° C.
On to `CCN(CC)C(=O)NC1N=C(c2ccccc2)c2ccccc2NC1=O` (centres unmarked) [Example 2, 1,1-Diethyl-3-(2-oxo-5-phenyl-2,3-dihydro 1H-benzo[e][1,4]diazepin-3-yl)-urea], for which the concentration for half-maximal inhibition (IC50) was found to be 4 µM.
Regarding `CCC(=O)NC1N=C(c2ccccc2)c2ccccc2NC1=O` (centres unmarked) [Example 3, N-(2-Oxo-5-phenyl-2,3-dihydro-1H-benzo[e][1,4]diazepin-3-yl)-propionamide], the concentration for half-maximal inhibition (IC50) worked out at 2.5 µM.
As to `CCCC(=O)NC1N=C(c2ccccc2)c2ccccc2NC1=O` (centres unmarked) [Example 4, N-(2-Oxo-5-phenyl-2,3-dihydro-1H-benzo[e][1,4]diazepin-3-yl)-butyramide], the IC50 turned out to be 5 µM.
In the case of `CC(C)C(=O)NC1N=C(c2ccccc2)c2ccccc2NC1=O` (centres unmarked) [Example 5, N-(2-Oxo-5-phenyl-2,3-dihydro-1H-benzo[e][1,4]diazepin-3-yl)-isobutyramide], the IC50 worked out at 2.5 µM.
As for `CC(C)(C)C(=O)NC1N=C(c2ccccc2)c2ccccc2NC1=O` (centres unmarked) [Example 6, 2,2-Dimethyl-N-(2-Oxo-5-phenyl-2,3-dihydro-1H-benzo[e][1,4]diazepin-3-yl)-propionamide], the half-inhibitory concentration (IC50) was 6 µM.
Regarding `O=C(NC1N=C(c2ccccc2)c2ccccc2NC1=O)C1CCCC1` (centres unmarked) [Example 7, Cyclopentanecarboxylic acid (2-oxo-5-phenyl-2,3-dihydro-1H-benzo[e][1,4]diazepin-3-yl)-amide], the half-maximal inhibitory concentration (IC50) was 2 µM.
In the case of `O=C(NC1N=C(c2ccccc2)c2ccccc2NC1=O)c1cccc(C(F)(F)F)c1` (centres unmarked) [Example 12, N-(2-Oxo-5-phenyl-2,3-dihydro-1H-benzo[e][1,4]diazepin-3-yl)-3-trifluoromethyl-benzamide], the IC50 came to 2.5 µM.
On to `O=C(NC1N=C(c2ccccc2)c2ccccc2NC1=O)c1ccccc1` (centres unmarked) [Example 13, N-(2-Oxo-5-phenyl-2,3-dihydro-1H-benzo[e][1,4]diazepin-3-yl)-benzamide], for which the IC50 is 1.5 µM.
As for `O=C(NC1N=C(c2ccccc2)c2ccccc2NC1=O)c1ccco1` (centres unmarked) [Example 15, Furan-2-carboxylic acid (2-oxo-5-phenyl-2,3-dihydro-1H-benzo[e][1,4]diazepin-3-yl)-amide], the half-maximal inhibitory concentration (IC50) was 1 µM.
As to `O=C1Nc2ccccc2C(c2ccccc2)=NC1NC(=O)N1CCOCC1` (centres unmarked) [Example 17, Morpholine-4-carboxylic acid (2-oxo-5-phenyl-2,3-dihydro-1H-benzo[e][1,4]diazepin-3-yl)-amide], the 50% inhibitory concentration (IC50) is 5 µM.
With `O=C(NC1N=C(c2ccccc2)c2ccccc2NC1=O)c1ccc([N+](=O)[O-])cc1` (centres unmarked) [Example 18, 4-Nitro-N-(2-oxo-5-phenyl-2,3-dihydro-1H-benzo[e][1,4]diazepin-3-yl)-benzamide], the concentration for half-maximal inhibition (IC50) turned out to be 2 µM.
Still for that read-out and setting: for `CN1CCN(C(=O)NC2N=C(c3ccccc3)c3ccccc3NC2=O)CC1` (centres unmarked) [Example 20, 4-Methyl-piperazine-1-carboxylic acid-(2-oxo-5-phenyl-2,3-dihydro-1H-benzo[e][1,4]diazepin-3-yl)-amide] the value was 25 µM.
